Measured values: patent US7745390B2, “Antimicrobial peptides” (priority 2005, dated 2010)
In brackets after ≈: the same amount, converted by molar mass. Where two headings read alike, the source gives them in different places. Square brackets hold non-standard residues; d marks the D form. Ends that are not written are not given here. Peptide text beside a SMILES is read from it.

Key:
B. cereus [1] = format: cell-based
In short: (§1)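 First, peptides in 10 mM phosphate pH 7.2 with 0.03% LB meet bacteria (~5×10^6 CFU/ml). Second, incubation runs 3 h at 37 °C. Third, LB is added and plates grow overnight before OD600 reading.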

E. coli DH5a = format: cell-based
In short: as §1

Salmonella = format: cell-based, S. typhimurium
In short: as §1

bacteria [2] = assay: Activity in DMEM and RPMI media (lysis of bacteria); format: cell-based; design: key to Active in DMEM: YES: Active in DMEM; a blank means no activity; settings: Table 2; tested in DMEM and RPMI
Procedure: (§2) The CFU assay is the “gold standard” for evaluating antibiotics. Briefly, bacteria are grown overnight in rich medium, such as LB, and then diluted and grown in log phase for 2-4 hours. Cultures are set up as above, with the initial culture media being 10 mM phosphate buffer/0.03% LB; DMEM or RPMI; or DMEM or RPMI plus 10% serum (fetal calf, human, or mouse). After various periods of time, but generally 3 hours or less, aliquots are removed, diluted in LB at various dilutions, and plated on LB agar plates. Plates are incubated overnight at 37° C. and counted on an automatic colony counter.
In the column “Active in DMEM”, a blank means no activity. MAP stands for multiple antigenic peptide, where a number of identical peptide chains are synthesized and joined to a common core (like a dendrimer).
The peptides listed in Table 2 were tested in DMEM and RPMI, media that approximate blood and tissue conditions in vivo and those that were active under these conditions are listed in the last column (active in DMEM). […] No peptides that were all L-isomer peptides lysed bacteria in DMEM supplemented with serum.
The hydrophobic moment is a measure of amphipathicity and indicates how well the hydrophobic residues fall on one side of the helix while the hydrophilic residues fall on the opposite side is shown in column 7. This was determined using the Membrane Explorer Program (http://blanco.biomol.uci.edu/mpex/). A high number indicates a high hydrophobic moment. Column 8 again (like Table 2) indicates which of these peptides is active in DMEM.

bacteria [3] = assay: Activity in serum containing media (10% FCS in DMEM or RPMI); format: cell-based; settings: for active in serum containing media: 10% FCS in DMEM or RPMI
Procedure: as §2
Tests were conducted in low salt concentrations so that active peptide candidates could be identified more readily. It is important for in vivo applications that the present antimicrobial peptides be active in physiological salt concentrations (150 mM) as well as in the presence of other tissue components, such as blood plasma (serum). Serum may contain proteases that destroy peptides; the use of D-amino acids can improve protease resistance. See G12.21. […] Also active were G11.6, G11.26, G11.29, G11.30, G11.34, G11.35, G12.11, G12.19, G12.20 and G12.21. […]

B. cereus [4] = assay: CFU assay in 10% FCS/DMEM; format: cell-based; settings: 3 hrs
Procedure: as §2
(§3) Three preferred peptides G11.46, G12.21 and G14.15, discussed above, were further tested for antimicrobial efficacy under various conditions using the 10% FCS/DMEM assay as described under CFU assay. The incubation times with the bacteria and peptide was three hours, at which time the bacteria were diluted and plated on agar. […] The MIC for each compound is highlighted.

bacterial strains = assay: organism not typed; format: cell-based
Procedure: as §3
Table 9 below repeats some data presented above in Tables 6, 7, and 8.

[5] = 10 mM phosphate buffer, pH 7.2, 0.03% LB

Molecule	B. cereus MIC (B. cereus [1]; pH 7.2) [µM]	IC50 (B. cereus [1]; pH 7.2) [nM]	E. coli DH5a MIC (E. coli DH5a; DH5a, pH 7.2) [µM]	IC50 (E. coli DH5a; DH5a, pH 7.2) [nM]	IC50 (Salmonella; pH 7.2) [nM]	Salmonella MIC (Salmonella; pH 7.2) [µM]	Active in DMEM (bacteria [2])	active in serum containing media (bacteria [3])	further results
CSCC[C@H](NC(=O)[C@H](Cc1ccccc1)NC(=O)[C@@H](CCCNC(=N)N)NC(=O)[C@@H](CCCNC(=N)N)NC(=O)[C@H](CO)NC(=O)[C@@H](NC(=O)[C@H](CC(=O)O)NC(=O)[C@H](CCCNC(=N)N)NC(=O)[C@H](Cc1c[nH]c2ccccc12)NC(=O)[C@H](CCCNC(=N)N)NC(=O)[C@H](CO)NC(=O)[C@H](CCCNC(=N)N)NC(=O)CNC(=O)[C@@H](NC(=O)[C@H](CCCNC(=N)N)NC(=O)[C@H](CO)NC(=O)[C@@H](NC(=O)[C@H](CCCNC(=N)N)NC(=O)[C@@H](NC(=O)[C@@H]1CCCN1C(=O)[C@@H]1CCCN1C(=O)[C@H](CCCNC(=N)N)NC(=O)[C@H](CO)NC(=O)[C@@H](NC(=O)[C@H](CO)NC(=O)[C@H](CCCNC(=N)N)NC(=O)[C@@H](N)CCC(N)=O)C(C)C)[C@@H](C)O)C(C)C)[C@@H](C)O)C(C)C)C(=O)N[C@@H](CCCNC(=N)N)C(=O)N[C@@H](CCCNC(=N)N)C(=O)O [Peptide G8.11] (H-QRSVSRPPTRVSRTGRSRWRDVS[dR][dR]FMRR-OH; N-terminus and C-terminus assumed)	0.75	450	0.35	210	220	0.35	YES	active	–
CSCC[C@H](NC(=O)[C@H](Cc1ccccc1)NC(=O)[C@@H](CCCNC(=N)N)NC(=O)[C@@H](CCCNC(=N)N)NC(=O)[C@H](CO)NC(=O)[C@H](NC(=O)[C@@H](CCCNC(=N)N)NC(=O)[C@@H](N)CCCNC(=N)N)C(C)C)C(=O)N[C@H](CCCNC(=N)N)C(=O)N[C@@H](CCCNC(=N)N)C(=O)O [Peptide G11.34, RrvSrrFMrR] (H-R[dR][dV]S[dR][dR]FM[dR]R-OH; N-terminus and C-terminus assumed)	>10	> 10000	0.7	410	1600	2.8	YES	active	–
CSCC[C@@H](NC(=O)[C@H](Cc1ccccc1)NC(=O)[C@@H](CCCNC(=N)N)NC(=O)[C@@H](CCCNC(=N)N)NC(=O)[C@H](CO)NC(=O)[C@H](NC(=O)[C@H](CCCNC(=N)N)NC(=O)[C@@H](N)CCCNC(=N)N)C(C)C)C(=O)N[C@@H](CCCNC(=N)N)C(=O)N[C@@H](CCCNC(=N)N)C(=O)O [Peptide G11.35, RRvSrrFmRR] (H-RR[dV]S[dR][dR]F[dM]RR-OH; N-terminus and C-terminus assumed)	>10	> 10000	0.7	410	3250	5.7	YES	active	–
CN[C@H](CC(C)C)C(=O)N[C@H]1C(=O)N[C@@H](CC(N)=O)C(=O)N[C@H]2C(=O)N[C@H]3C(=O)N[C@H](C(=O)N[C@H](C(=O)O)c4cc(O)cc(O)c4-c4cc3ccc4O)[C@H](O)c3ccc(c(Cl)c3)Oc3cc2cc(c3O[C@@H]2O[C@H](CO)[C@@H](O)[C@H](O)[C@H]2O[C@H]2C[C@](C)(N)[C@H](O)[C@H](C)O2)Oc2ccc(cc2Cl)[C@H]1O [vancomycin, reference compound]	–	–	–	–	–	–	–	–	% Survival (CFU Assay) (B. cereus [4]; 0.08 uM): 97.67%; % Survival (CFU Assay) (B. cereus [4]; 0.16 uM): 113.37%; % Survival (CFU Assay) (B. cereus [4]; 0.32 uM): 79.59%; % Survival (CFU Assay) (B. cereus [4]; 0.63 uM): 63.73%; % Survival (CFU Assay) (B. cereus [4]; 1.25 uM): 9.06%; % Survival (CFU Assay) (B. cereus [4]; 2.5 uM): 1.09%; MIC (bacterial strains; 3 h): > 10 µM; MIC (bacterial strains; Bacillus cereus, ATCC53522, 3 h): 2.5 µM (≈ 3.62 µg/mL)
CRRVSRRFMRRC [G11.29 CYC]	–	–	–	–	–	–	YES	active	B. cereus MIC (B. cereus [1]; [5]): 1.39 µM; IC50 (B. cereus [1]; 10 mM phosphate buffer, pH 7.2, 0.03% LB, read-out: B. cereus IC50): 890 nM; E. coli DH5a MIC (E. coli DH5a; [5]): 1.4 µM; IC50 (E. coli DH5a; 10 mM phosphate buffer, pH 7.2, 0.03% LB, read-out: E. coli DH5a IC50): 750 nM; Salmonella MIC (Salmonella; [5]): 2.8 µM; IC50 (Salmonella; 10 mM phosphate buffer, pH 7.2, 0.03% LB, read-out: Salmonella IC50): 1750 nM
RDVSRRFMRRGSRDVSRRFMRR [Peptide G11.6]	2.4	890	0.7	450	890	1.4	YES	active	–
RDVSRRFMRRGSRDVSRRFMRRGSRDVSRRFMRR [Peptide G11.26]	0.35	210	0.7	400	210	0.35	YES	active	–
RRVSRPPMRRYRSRRPRRLV [Peptide G12.20]	0.35	210	0.73	230	420	1.4	YES	active	–
RRVSRPPPRRYRSRRPRRLV [Peptide G12.19]	0.35	210	0.75	220	730	1.38	YES	active	–
RRVSRRFMRRYRSRRPRRLV [Peptide G12.11]	0.35	210	0.75	210	410	0.65	YES	active	–
RRVSRRPMRRYRSRRPRRLV [Peptide G12.12]	0.35	210	0.35	210	210	0.35	YES	–	active in physiological salt concentrations (150 mM) and presence of serum (bacteria [3]): active in such conditions
